From the kinase profiling compilation of Christmann-Franck et al. (2016)

Key:
Test in all cases: KINOMEscan competition binding
Details in all cases: compound 2.0 µM
VRK2 (human) = VRK2 (human) (UniProt Q86Y07)
GSK3B (human) = GSK3B (human) (UniProt P49841)
PAK6 (human) = PAK6 (human) (UniProt Q9NQU5)
CSNK1G2 (human) = CSNK1G2 (human) (UniProt P78368)
CRK2 (P.falciparum) = CRK2 (P.falciparum) (UniProt P61075)
MINK1 (human) = MINK1 (human) (UniProt Q8N4C8)
CHUK (human) = CHUK (human) (UniProt O15111)
MAP2K6 (human) = MAP2K6 (human) (UniProt P52564)
STK4 (human) = STK4 (human) (UniProt Q13043)
BMPR2 (human) = BMPR2 (human) (UniProt Q13873)
[1] = system: PIK3CA (human), P42336 [H1047L]
STK16 (human) = STK16 (human) (UniProt O75716)
CDK17 (human) = CDK17 (human) (UniProt Q00537)
MAP3K10 (human) = MAP3K10 (human) (UniProt Q02779)
NEK1 (human) = NEK1 (human) (UniProt Q96PY6)
NEK7 (human) = NEK7 (human) (UniProt Q8TDX7)
RPS6KB1 (human) = RPS6KB1 (human) (UniProt P23443)
PRKCI (human) = PRKCI (human) (UniProt P41743)
STK33 (human) = STK33 (human) (UniProt Q9BYT3)
CLK2 (human) = CLK2 (human) (UniProt P49760)
PRKAA2 (human) = PRKAA2 (human) (UniProt P54646)
SRMS (human) = SRMS (human) (UniProt Q9H3Y6)
MKNK2 (human) = MKNK2 (human) (UniProt Q9HBH9)
STK38 (human) = STK38 (human) (UniProt Q15208)
CLK1 (human) = CLK1 (human) (UniProt P49759)
CSF1R (human) = CSF1R (human) (UniProt P07333)
CAMK4 (human) = CAMK4 (human) (UniProt Q16566)
MYO3A (human) = MYO3A (human) (UniProt Q8NEV4)
EIF2AK2 (human) = EIF2AK2 (human) (UniProt P19525)
[2] = molecular target: TYK2 JH2 pseudokinase (human) (UniProt P29597)
MUSK (human) = MUSK (human) (UniProt O15146)
[3] = system: MET (human), P08581 [M1250T]
PTK6 (human) = PTK6 (human) (UniProt Q13882)
[4] = system: EGFR (human), P00533 [L861Q]
PTK2B (human) = PTK2B (human) (UniProt Q14289)
[5] = system: ABL1 (human), P00519 [E255K]
FGFR3 (human) = FGFR3 (human) (UniProt P22607)
CAMK2D (human) = CAMK2D (human) (UniProt Q13557)
SYK (human) = SYK (human) (UniProt P43405)
MAP4K3 (human) = MAP4K3 (human) (UniProt Q8IVH8)
MAPK3 (human) = MAPK3 (human) (UniProt P27361)
DYRK1A (human) = DYRK1A (human) (UniProt Q13627)
TEC (human) = TEC (human) (UniProt P42680)
TEC (human), sequence (P42680 whole entry, looked up): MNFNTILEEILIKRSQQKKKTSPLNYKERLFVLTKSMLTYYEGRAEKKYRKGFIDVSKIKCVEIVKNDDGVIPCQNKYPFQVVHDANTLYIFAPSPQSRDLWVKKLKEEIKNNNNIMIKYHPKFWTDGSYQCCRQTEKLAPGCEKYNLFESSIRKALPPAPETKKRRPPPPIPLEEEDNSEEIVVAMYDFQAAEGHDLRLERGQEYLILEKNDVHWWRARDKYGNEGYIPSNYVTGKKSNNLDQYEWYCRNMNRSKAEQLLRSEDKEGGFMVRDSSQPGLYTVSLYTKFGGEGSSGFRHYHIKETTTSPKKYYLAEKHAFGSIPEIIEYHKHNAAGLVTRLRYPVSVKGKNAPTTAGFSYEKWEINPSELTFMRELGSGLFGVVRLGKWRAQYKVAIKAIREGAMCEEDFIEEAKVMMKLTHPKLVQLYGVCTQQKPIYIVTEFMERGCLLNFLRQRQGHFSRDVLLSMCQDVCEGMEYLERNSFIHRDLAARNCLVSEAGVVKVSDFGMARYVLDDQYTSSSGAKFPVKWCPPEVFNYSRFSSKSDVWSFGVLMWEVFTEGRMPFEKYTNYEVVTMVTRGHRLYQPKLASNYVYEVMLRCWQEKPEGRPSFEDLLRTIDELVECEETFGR

FGFR3 (human), sequence (P22607 whole entry, looked up): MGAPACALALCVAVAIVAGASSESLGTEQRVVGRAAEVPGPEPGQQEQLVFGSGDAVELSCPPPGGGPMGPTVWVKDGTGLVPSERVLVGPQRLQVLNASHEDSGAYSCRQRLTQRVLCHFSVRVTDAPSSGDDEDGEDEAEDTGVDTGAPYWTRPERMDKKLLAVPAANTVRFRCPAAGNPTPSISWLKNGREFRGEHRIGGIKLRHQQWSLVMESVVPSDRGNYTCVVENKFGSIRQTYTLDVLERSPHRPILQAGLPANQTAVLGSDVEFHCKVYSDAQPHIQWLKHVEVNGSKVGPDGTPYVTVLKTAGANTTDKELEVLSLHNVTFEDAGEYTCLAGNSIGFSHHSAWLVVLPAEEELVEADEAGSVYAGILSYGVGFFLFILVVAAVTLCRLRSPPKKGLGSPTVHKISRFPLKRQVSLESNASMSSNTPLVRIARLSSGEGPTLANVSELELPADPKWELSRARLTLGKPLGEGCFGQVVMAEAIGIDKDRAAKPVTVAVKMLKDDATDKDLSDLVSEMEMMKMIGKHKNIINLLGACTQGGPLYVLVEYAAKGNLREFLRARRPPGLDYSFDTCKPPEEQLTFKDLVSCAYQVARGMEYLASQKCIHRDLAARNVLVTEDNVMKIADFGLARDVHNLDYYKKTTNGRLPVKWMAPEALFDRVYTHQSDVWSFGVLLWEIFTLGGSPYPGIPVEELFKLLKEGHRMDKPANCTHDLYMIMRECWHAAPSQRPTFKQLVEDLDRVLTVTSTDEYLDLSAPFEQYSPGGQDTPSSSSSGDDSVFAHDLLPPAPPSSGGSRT
ABL1 (human), P00519 [E255K], sequence (P00519 whole entry E255K, looked up): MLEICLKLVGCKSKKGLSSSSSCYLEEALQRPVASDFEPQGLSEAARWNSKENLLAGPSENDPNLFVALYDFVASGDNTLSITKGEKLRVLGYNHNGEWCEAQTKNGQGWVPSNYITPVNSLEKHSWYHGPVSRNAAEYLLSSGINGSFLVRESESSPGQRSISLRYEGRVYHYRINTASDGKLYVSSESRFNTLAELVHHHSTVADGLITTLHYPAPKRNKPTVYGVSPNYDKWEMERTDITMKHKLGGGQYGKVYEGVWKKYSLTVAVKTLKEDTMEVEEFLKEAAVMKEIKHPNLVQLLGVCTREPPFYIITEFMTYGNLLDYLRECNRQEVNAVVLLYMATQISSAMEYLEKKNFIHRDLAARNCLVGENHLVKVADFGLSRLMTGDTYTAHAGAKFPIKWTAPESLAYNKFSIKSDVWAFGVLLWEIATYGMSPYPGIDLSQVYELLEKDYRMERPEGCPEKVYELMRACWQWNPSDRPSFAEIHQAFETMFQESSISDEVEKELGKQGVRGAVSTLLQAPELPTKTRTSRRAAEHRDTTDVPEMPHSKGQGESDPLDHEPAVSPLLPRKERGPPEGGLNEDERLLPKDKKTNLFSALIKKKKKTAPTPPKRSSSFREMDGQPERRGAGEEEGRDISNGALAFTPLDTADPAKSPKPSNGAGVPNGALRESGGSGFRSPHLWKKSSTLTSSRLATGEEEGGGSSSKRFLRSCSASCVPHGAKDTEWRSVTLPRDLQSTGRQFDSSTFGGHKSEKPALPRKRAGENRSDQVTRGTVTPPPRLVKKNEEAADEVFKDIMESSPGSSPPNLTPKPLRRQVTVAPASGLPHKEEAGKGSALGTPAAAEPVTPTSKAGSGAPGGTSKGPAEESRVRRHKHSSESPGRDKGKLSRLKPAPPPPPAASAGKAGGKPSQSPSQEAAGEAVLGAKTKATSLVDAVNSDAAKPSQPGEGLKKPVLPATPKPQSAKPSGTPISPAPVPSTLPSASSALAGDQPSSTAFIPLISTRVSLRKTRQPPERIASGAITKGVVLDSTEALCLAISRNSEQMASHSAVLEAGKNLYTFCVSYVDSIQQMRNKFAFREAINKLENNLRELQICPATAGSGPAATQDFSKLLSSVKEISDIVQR
MUSK (human), sequence (O15146 whole entry, looked up): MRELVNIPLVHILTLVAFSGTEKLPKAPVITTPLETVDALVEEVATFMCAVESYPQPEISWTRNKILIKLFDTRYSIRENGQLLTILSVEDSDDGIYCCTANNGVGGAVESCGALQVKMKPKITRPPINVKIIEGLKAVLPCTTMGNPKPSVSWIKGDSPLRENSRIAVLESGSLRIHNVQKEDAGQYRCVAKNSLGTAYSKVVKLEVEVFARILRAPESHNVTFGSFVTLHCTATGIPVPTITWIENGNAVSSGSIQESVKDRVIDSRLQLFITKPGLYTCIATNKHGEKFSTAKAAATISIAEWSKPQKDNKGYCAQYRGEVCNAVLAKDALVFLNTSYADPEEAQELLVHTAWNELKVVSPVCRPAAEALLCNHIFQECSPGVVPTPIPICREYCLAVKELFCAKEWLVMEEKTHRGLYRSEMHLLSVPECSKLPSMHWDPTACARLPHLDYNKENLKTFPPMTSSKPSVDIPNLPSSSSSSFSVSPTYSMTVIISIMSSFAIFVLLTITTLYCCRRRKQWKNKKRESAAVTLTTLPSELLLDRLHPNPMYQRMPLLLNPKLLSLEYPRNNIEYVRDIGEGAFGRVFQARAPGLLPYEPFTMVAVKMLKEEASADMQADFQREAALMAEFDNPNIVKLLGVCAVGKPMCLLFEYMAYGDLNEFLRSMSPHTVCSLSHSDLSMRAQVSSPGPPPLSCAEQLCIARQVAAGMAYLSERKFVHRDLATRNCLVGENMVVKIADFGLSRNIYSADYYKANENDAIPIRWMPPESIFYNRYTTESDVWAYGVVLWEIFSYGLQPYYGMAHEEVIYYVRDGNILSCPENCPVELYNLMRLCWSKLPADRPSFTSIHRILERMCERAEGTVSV
CAMK2D (human), sequence (Q13557 whole entry, looked up): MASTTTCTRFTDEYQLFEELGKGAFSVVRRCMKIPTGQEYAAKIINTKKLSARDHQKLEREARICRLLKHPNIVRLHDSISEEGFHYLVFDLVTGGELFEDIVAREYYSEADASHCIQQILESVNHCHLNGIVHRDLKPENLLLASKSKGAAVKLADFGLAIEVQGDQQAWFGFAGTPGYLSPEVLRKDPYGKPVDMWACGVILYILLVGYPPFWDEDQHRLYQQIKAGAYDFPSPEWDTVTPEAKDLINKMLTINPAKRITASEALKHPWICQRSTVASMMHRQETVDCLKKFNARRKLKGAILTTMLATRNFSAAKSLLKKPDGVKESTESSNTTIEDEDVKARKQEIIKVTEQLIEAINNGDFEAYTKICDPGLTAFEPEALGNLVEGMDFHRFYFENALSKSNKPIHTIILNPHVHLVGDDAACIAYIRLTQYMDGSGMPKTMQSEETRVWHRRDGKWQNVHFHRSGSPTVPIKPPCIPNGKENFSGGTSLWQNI
PIK3CA (human), P42336 [H1047L], sequence (P42336 whole entry H1047L, looked up): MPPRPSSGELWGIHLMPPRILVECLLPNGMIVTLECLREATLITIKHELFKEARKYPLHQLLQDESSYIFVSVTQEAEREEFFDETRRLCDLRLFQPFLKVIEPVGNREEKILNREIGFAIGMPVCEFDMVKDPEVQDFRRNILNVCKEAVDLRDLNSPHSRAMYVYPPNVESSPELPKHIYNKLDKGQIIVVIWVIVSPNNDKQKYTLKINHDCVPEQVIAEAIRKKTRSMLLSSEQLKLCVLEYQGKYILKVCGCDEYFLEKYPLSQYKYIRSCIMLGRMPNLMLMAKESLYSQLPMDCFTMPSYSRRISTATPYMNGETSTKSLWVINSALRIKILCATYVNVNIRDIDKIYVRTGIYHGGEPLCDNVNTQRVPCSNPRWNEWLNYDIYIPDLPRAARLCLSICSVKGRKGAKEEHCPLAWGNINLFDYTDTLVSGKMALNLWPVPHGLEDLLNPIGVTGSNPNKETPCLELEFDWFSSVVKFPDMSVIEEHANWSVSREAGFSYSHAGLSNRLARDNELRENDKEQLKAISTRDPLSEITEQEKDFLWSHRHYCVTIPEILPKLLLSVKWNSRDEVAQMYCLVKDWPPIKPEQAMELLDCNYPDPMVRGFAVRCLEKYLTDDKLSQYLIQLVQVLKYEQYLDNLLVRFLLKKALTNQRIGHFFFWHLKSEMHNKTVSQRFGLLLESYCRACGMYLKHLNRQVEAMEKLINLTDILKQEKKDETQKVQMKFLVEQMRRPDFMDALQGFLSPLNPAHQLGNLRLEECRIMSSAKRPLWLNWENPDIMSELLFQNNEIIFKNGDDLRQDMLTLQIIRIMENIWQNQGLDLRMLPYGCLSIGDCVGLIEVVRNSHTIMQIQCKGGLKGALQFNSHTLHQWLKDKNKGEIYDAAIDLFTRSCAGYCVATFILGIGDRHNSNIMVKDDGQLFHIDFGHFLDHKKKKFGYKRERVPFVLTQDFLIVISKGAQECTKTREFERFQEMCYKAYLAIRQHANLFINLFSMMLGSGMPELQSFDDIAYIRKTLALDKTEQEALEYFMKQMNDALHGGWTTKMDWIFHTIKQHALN

Structure (SMILES): N#Cc1ccc2ncnc(NCCc3ccc4ccccc4c3)c2c1
- kinase still bound, per cent of control (VRK2 (human)): 100%
- kinase still bound, per cent of control (GSK3B (human)): 89%
- kinase still bound, per cent of control (PAK6 (human)): 80%
- kinase still bound, per cent of control (CSNK1G2 (human)): 87%
- kinase still bound, per cent of control (CRK2 (P.falciparum)): 100%
- kinase still bound, per cent of control (MINK1 (human)): 100%
- kinase still bound, per cent of control (CHUK (human)): 74%
- kinase still bound, per cent of control (MAP2K6 (human)): 100%
- kinase still bound, per cent of control (STK4 (human)): 100%
- kinase still bound, per cent of control (BMPR2 (human)): 100%
- kinase still bound, per cent of control [1]: 100%
- kinase still bound, per cent of control (STK16 (human)): 51%
- kinase still bound, per cent of control (CDK17 (human)): 90%
- kinase still bound, per cent of control (MAP3K10 (human)): 100%
- kinase still bound, per cent of control (NEK1 (human)): 100%
- kinase still bound, per cent of control (NEK7 (human)): 100%
- kinase still bound, per cent of control (RPS6KB1 (human)): 97%
- kinase still bound, per cent of control (PRKCI (human)): 100%
- kinase still bound, per cent of control (STK33 (human)): 96%
- kinase still bound, per cent of control (CLK2 (human)): 74%
- kinase still bound, per cent of control (PRKAA2 (human)): 80%
- kinase still bound, per cent of control (SRMS (human)): 84%
- kinase still bound, per cent of control (MKNK2 (human)): 98%
- kinase still bound, per cent of control (STK38 (human)): 100%
- kinase still bound, per cent of control (CLK1 (human)): 56%
- kinase still bound, per cent of control (CSF1R (human)): 77%
- kinase still bound, per cent of control (CAMK4 (human)): 100%
- kinase still bound, per cent of control (MYO3A (human)): 100%
- kinase still bound, per cent of control (EIF2AK2 (human)): 72%
- kinase still bound, per cent of control [2]: 92%
- kinase still bound, per cent of control (MUSK (human)): 100%
- kinase still bound, per cent of control [3]: 73%
- kinase still bound, per cent of control (PTK6 (human)): 96%
- kinase still bound, per cent of control [4]: 60%
- kinase still bound, per cent of control (PTK2B (human)): 85%
- kinase still bound, per cent of control [5]: 100%
- kinase still bound, per cent of control (FGFR3 (human)): 100%
- kinase still bound, per cent of control (CAMK2D (human)): 100%
- kinase still bound, per cent of control (SYK (human)): 100%
- kinase still bound, per cent of control (MAP4K3 (human)): 100%
- kinase still bound, per cent of control (MAPK3 (human)): 95%
- kinase still bound, per cent of control (DYRK1A (human)): 100%
- kinase still bound, per cent of control (TEC (human)): 100%
